In experiment [1] the test system is three suspension cancer cell lines. The experiment can be described thus: PraediCare Dx FACS BH3 profiling with BH3 mimetic compound applied to permeabilized cells. The following applies: cell lines primed by NOXA. It is filed as cell-based. An excerpt: To further probe MCL-1 dependencies we explored the utility of certain BH3 mimetic compounds to provide an alternative to the NOXA readout to determine MCL-1 dependency in cancer cells. Our approach was to directly apply membrane permeable BH3 mimetic compounds that selectively target MCL1. Doing so would add the advantage of directly observing on target activity of the therapeutic agent.

The subject of experiment [2] is AML blasts from patient peripheral blood or bone marrow. Put plainly: BH3 profiling (mitochondrial profiling): JC-1 mitochondrial depolarization (% priming) of gated AML blasts exposed to BH3 peptides. It is filed as cell-based, human. Conditions: for Median CR (n = 23) / Median CR (n = 13): complete remission patients; for Median NR (n = 29) / Median NR (n = 18): non-responders. On the procedure: Rows that are shaded grey are samples that failed the acceptance criteria of BH3 profiling during processing. […] Signal to noise is a measure of the DMSO JC-1 red mean fluorescence intensity (MFI) over the CCCP JC-1 read MFI. The cell counts and percent viability were determined by manual cell counting with trypan blue exclusion. Percent blasts are the percentages of CD45-dim, CD3/CD20 negative, and SSC-low of the permeabilized viable cells. All BH3 profiling was performed on those gated blast cells.
Briefly, frozen, extracted leukocyte samples were rapidly thawed, and cell viability was determined by Trypan Blue exclusion. Cells were washed in FACS buffer (1x PBS with 2% FBS) and immunophenotyped using fluorescently labeled CD45, CD3, and CD20 monoclonal antibodies. Cells were then resuspended in Newmeyer buffer (10 mM Trehalose, 10 mM HEPES, 80 mM KCl, 20 μM EGTA, 20 μM EDTA, 5 mM succinate, pH 7.4) for the perturbation step. The BH3 peptides were diluted in Newmeyer buffer to make working solutions resulting in final concentrations of: BIM (100 μM), BIM (0.1 μM), NOXA (100 μM), Puma (10 μM), HRK (100 μM), BAD (100 μM), and BID (1.0 μM). DMSO and CCCP were used as negative and positive peptide controls. Digitonin and oligomycin were added to individual FACS tubes, followed by the BH3 peptides. Cells were then added to the FACS tubes and incubated for 2 hours and 15 minutes at room temperature, in order for cell permeabilization, delivery of peptides or compounds, and mitochondrial depolarization to occur. After the incubation, JC-1 dye was prepared in Newmeyer buffer and added to directly to the treated cells. An additional tube of cells that was not treated with a peptide or compound was stained with propidium iodide (PI) to ensure that cells were effectively permeabilized by the digitonin. After 45 minutes of incubation with JC-1, cells were analyzed on a three laser BD FACSCanto II. AML Blasts were gated based on four parameters: 1) permeabilization (as determined by PI staining), 2) singlet discrimination based on SSC, 3) CD45 dim and CD3/CD20 negative, and 4) SSC low. The median JC-1 red fluorescence of the gated blast population was then used to calculate % depolarization as compared to DMSO (negative) and CCCP (positive) controls.
For each peptide, the percentage priming was calculated using the following formula that determines the priming based on the DMSO negative control as completely unprimed and the CCCP as a 100% primed reference:
For analysis, all patients not classified as CR were treated as non-responders [Minimal Residual Disease (MRD), Partial Remission (PR), and TF (treatment failure)]. Student's t-tests, Mann-Whitney rank-sum non-parametric tests, multi-variate logistic regression, and ROC curve analyses, between the BH3 peptides (and other tumor characteristics, such as cytogenetics, etc.) and response, were calculated using GraphPad Prism Version 5.04 and MedCalc Version 14.8.1.

The mark [3] stands for this setting: Table 6, median percentage priming, all samples.
[4] abbreviates: Table 8, median percentage priming, bone marrow samples only.
Where [5] appears, read: median percentage priming, bone marrow samples only.

Data on 2 compounds can be found in patent publication US10793915B2, “Context dependent diagnostics test for guiding cancer treatment” (Eutropics Pharmaceuticals, Inc., priority 2015, dated 2020).

For `CCN1CCN(C(c2ccc(C(F)(F)F)cc2)c2ccc3cccnc3c2O)CC1` (stereo not drawn) [EU5346], the “mitochondrial response to the compound (priming)” value in experiment [1] is listed as “responsive”.
In the case of “NOXA: NOXA BH3 peptide, 100 μM; in some aspects AELPPEFAAQLRKIGDKVYC (SEQ ID NO:1) (listed as Homo sapiens)”, the “Median CR (n = 23)” value is 17.2 in experiment [2] (setting [3]); 17.2 in experiment [2] (median percentage priming of blasts, all samples (blood and marrow)). The “Median NR (n = 29)” value in experiment [2] (setting [3]) worked out at 20.2; in experiment [2] (median percentage priming of blasts, all samples (blood and marrow), BIM 100/0.1 μM, NOXA 100 μM, Puma 10 μM, HRK 100 μM, BAD 100 μM, BID 1.0 μM), 20.2. Further, the “Median CR (n = 13)” value in experiment [2] (setting [4]) and in experiment [2] (setting [5]) was 44.5 throughout. For the same compound, the “Median NR (n = 18)” value in experiment [2] (setting [4]) and in experiment [2] (setting [5]) was 5.2 in each case. Moreover, in experiment [2] (all responses, all profiled patient samples), the “median depolarization (priming)” value came out at 16.0%. Also, the “NOXA priming in patients that did not respond” value in experiment [2] (bone marrow samples only) came out at 5.2%. Besides, the “NOXA priming in patients that respond to treatment” value in experiment [2] (bone marrow samples only) was determined as 44.5%.
